In ChEMBL document CHEMBL1137112, “4-Acylamino-6-arylfuro[2,3-d]pyrimidines: potent and selective glycogen synthase kinase-3 inhibitors” (Bioorg Med Chem Lett, 2004):

Columns and labels:
[1] = target: Glycogen synthase kinase-3 beta (Homo sapiens, UniProt P49841); assay: Inhibition of human Glycogen synthase kinase-3 beta
[2] = target: Cyclin-dependent kinase 2 (Homo sapiens, UniProt P24941); assay: Inhibition of cyclin-dependent kinase 2
[3] = target: Vascular endothelial growth factor receptor 2 (Homo sapiens, UniProt P35968); assay: Inhibition of Vascular endothelial growth factor receptor 2 kinase
Vascular endothelial growth factor receptor 2, sequence (P35968 whole entry): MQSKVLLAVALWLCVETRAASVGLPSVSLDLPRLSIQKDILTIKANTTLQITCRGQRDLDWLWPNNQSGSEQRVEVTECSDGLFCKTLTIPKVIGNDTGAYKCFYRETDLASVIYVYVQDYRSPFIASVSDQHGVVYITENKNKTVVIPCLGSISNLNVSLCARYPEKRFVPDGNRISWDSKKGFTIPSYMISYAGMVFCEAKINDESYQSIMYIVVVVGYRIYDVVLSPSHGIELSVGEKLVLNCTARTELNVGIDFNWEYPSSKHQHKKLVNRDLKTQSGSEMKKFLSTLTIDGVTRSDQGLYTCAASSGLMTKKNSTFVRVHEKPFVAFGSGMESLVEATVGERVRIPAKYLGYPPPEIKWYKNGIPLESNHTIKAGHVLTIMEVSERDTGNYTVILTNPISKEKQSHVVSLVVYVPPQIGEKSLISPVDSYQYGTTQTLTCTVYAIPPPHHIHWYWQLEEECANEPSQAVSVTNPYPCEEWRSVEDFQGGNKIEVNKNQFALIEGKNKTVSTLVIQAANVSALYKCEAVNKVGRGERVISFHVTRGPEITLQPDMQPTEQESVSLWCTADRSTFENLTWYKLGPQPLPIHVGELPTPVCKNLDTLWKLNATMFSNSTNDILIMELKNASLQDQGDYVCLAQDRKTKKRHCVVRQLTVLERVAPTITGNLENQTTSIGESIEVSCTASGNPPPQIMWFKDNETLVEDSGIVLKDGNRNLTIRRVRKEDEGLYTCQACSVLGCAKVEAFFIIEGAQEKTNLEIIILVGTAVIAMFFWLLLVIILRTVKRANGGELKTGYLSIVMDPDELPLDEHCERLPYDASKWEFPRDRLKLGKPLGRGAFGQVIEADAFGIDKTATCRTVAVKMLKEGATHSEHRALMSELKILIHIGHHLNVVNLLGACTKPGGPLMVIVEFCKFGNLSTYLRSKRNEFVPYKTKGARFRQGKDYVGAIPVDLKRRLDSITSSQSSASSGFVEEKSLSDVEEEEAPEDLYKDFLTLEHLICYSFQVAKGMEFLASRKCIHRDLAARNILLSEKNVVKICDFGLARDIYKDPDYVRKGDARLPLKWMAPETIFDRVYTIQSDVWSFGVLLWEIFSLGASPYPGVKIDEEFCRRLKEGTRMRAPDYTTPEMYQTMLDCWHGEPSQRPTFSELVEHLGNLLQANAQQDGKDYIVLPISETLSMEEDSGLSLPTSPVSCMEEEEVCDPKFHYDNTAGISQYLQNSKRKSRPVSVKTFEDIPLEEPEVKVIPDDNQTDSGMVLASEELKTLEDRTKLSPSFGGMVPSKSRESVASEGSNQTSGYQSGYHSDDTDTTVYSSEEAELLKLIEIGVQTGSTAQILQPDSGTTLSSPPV

L6 = assay: Potency of compound in glycogen accumulation in L6 cells; format: functional, cell-based; settings: Rattus norvegicus

Glycogen synthase kinase-3 beta, sequence (P49841 whole entry): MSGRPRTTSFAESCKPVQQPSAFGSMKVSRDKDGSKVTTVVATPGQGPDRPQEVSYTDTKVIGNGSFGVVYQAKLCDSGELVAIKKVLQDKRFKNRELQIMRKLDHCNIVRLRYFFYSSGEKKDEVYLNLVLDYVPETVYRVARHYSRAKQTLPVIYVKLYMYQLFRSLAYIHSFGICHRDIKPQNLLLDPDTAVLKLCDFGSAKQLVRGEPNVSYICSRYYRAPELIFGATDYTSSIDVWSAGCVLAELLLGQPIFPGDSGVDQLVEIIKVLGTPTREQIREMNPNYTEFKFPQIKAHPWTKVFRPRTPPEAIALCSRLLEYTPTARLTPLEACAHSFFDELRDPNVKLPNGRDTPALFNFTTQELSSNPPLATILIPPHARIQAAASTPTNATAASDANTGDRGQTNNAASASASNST

Row | Compound | IC50 [1] [µM] | IC50 [2] [µM] | IC50 [3] [µM] | EC50 (L6) [µM]
1 | COc1ccc(-c2cc3c(NC(=O)N4CCOCC4)ncnc3o2)cc1 | > 34 | > 20 | > 48 | –
2 | COc1ccc(-c2cc3c(NC(=O)N4CCCC4)ncnc3o2)cc1 | 1.95 | > 21 | 12.3 | –
3 | O=C(Nc1ncnc2oc(-c3ccc(F)cc3)cc12)C1CC1 | 0.575 | > 19 | 2.04 | –
4 | COc1ccc(-c2cc3c(NC(=O)c4ccco4)ncnc3o2)cc1 | 2.4 | > 20 | > 48 | –
5 | COc1ccc(-c2cc3c(NC(=O)CC4CCCC4)ncnc3o2)cc1 | 0.32 | > 19 | > 48 | –
6 | COc1ccc(-c2cc3c(NC(=O)C4CCCCC4)ncnc3o2)cc1 | 1.82 | > 20 | > 48 | –
7 | CCCCCC(=O)Nc1ncnc2oc(-c3ccc(OC)cc3)cc12 | 0.437 | > 19 | > 48 | –
8 | COc1ccc(-c2cc3c(NC(=O)C4CC4)ncnc3o2)cc1 | 0.316 | > 20 | 3.55 | –
9 | COc1ccc(-c2cc3c(NC(=O)CCSC)ncnc3o2)cc1 | 0.537 | > 20 | > 47 | –
10 | COc1ccc(-c2cc3c(NC(=O)c4cccc(F)c4)ncnc3o2)cc1 | > 35 | > 21 | 21.9 | –
11 | Cc1ccc(-c2cc3c(NC(=O)C4CC4)ncnc3o2)cc1 [GW819230X] | 0.617 | > 21 | 0.63 | –
12 | O=C(Nc1ncnc2oc(-c3ccc(Cl)cc3)cc12)C1CC1 | 1 | > 20 | 2.04 | –
13 | O=C(Nc1ncnc2oc(-c3ccc(Cl)cc3)cc12)C1CCCC1 | 0.55 | > 20 | > 20 | –

These reach a lower IC50 [1]. Values come first.

Row | IC50 [1] [µM] | IC50 [2] [µM] | IC50 [3] [µM] | Compound | EC50 (L6) [µM]
14 | 0.13 | > 21 | > 48 | COc1ccc(-c2cc3c(NC(=O)C(C)C)ncnc3o2)cc1 | –
15 | 0.17 | > 21 | 0.83 | O=C(Nc1ncnc2oc(-c3ccccc3)cc12)C1CC1 | –
16 | 0.005 | 0.45 | > 24 | O=C(Nc1ncnc2oc(-c3cccnc3)cc12)C1CCCC1 | 0.39
17 | 0.02 | > 19 | > 23 | O=C(Nc1ncnc2oc(-c3ccccc3)cc12)C1CCCC1 | > 10
18 | 0.005 | 0.44 | 3.24 | O=C(Nc1ncnc2oc(-c3cccnc3)cc12)C1CC1 | 0.74
19 | 0.219 | > 19 | > 19 | O=C(Nc1ncnc2oc(-c3ccc(F)cc3)cc12)C1CCCC1 | –
20 | 0.08 | – | – | COc1ccc(-c2oc3ncnc(N)c3c2-c2cccnc2)cc1 | –
21 | 0.24 | > 20 | > 20 | Cc1ccc(-c2cc3c(NC(=O)C4CCCC4)ncnc3o2)cc1 | –
22 | 0.03 | > 19 | 1.02 | COc1ccc(-c2cc3c(NC(=O)C4CCCC4)ncnc3o2)cc1 | –
